Entries after “also recorded” stand apart in the source; their conditions may differ.

This note sets out measurements from patent publication US11344534B2, “Cholinergic agonism for the treatment of pancreatic cancer” (priority 2017, dated 2022).

One assay relates to KC mice. The assay is described as follows: Vagotomized KC mice (KC+VxPP) treated with bethanechol in drinking water. The class given is in vivo, mouse. Conditions: for pancreatic tumor (PDAC) incidence: bethanechol 400 μg/ml in drinking water, at 20 weeks; for pancreatic CD44 expression: bethanechol vs KC+VxPP controls, immunostaining. How it is done: Thus, KC mice that underwent vagotomy treated with or without Bethanechol, a broad muscarinic agonist, were compared. Bethanechol treatment (400 μg/ml) started immediately after receiving surgery and continued till 20 weeks.
K-Ras^+/LSL-G12D, p53^+/R172H, and Pdx-1-Cre mice were provided by Dr. Kenneth Olive (Columbia University). M1RKO mice were purchased from the Jackson Laboratory. KC mice and KPC mice were crossed with M1RKO mice. For several experiments, KC mice received pyloroplasty with or without vagotomy at 8 weeks and KC+VxPP mice were treated with or without bethanechol (400 μg/ml) after surgery immediately. They were sacrificed at 20 weeks. In addition, KPC mice were treated with gemcitabine biweekly and with or without bethanechol when the tumor size of 3-5 mm detected using ultrasound. They were sacrificed when the mice were moribund. For liver metastatic experiments, WT type C57/B6 mice received spleen injection and hemi-splenectomy. […] They were sacrificed when the mice were moribund.
Bethanechol treatment (400 μg/ml in drinking water) was started in KC mice at 8 weeks, immediately after the mice received surgery, and continued until 20 weeks of age.
LSL-Kras^+/LSL-G12D, LSL-Trp53^+/R172H, and Pdx1-Cre mice were bred by Dr. Kenneth P. Olive and co-workers. Chrm1KO mice (C57BL/6-Chrm1tm1 Stl/J, (M1RKO) mice^1 were purchased from the Jackson Laboratory. KC mice and KPC mice were crossed with M1RKO mice. In the vagotomy experiments, KC mice received pyloroplasty with or without vagotomy at 8 weeks, and some KC+VxPP mice were treated with bethanechol ([…] in drinking water) immediately after surgery and then sacrificed at 20 weeks. KPC mice in treatment studies were palpated weekly for tumors in the pancreas. Once a tumor was suspected, KPC mice were screened by VEVO 2100—Ultrasound Imaging System (FUJIFILM VisualSonics) for pancreatic cancer. KPC mice were treated with gemcitabine, given by i.p. injection 100 mg/kg biweekly, with or without bethanechol, when a tumor size of 3-5 mm was detected using ultrasound. Mice were sacrificed when the mice were moribund. NOD/SCID mice were implanted with Panc1 cells subcutaneously and sacrificed at 30 days after implantation. For liver metastatic experiments, WT type C57/B6 mice received a splenic injection of labeled Panc02 cells, followed by hemi-splenectomy. The mice were then divided into three groups. […] Mice were then sacrificed when moribund. At necropsy, hepatic metastases that could clearly be identified as tumor nodules on gross inspection were separated. All animal studies and procedures were approved by the IACUC committee at Columbia University. All mice were bred under specific pathogen free conditions. Comparisons were made with age- and sex-matched control animals.
5 μm paraffin embedded or PFA-fixed frozen sections were prepared for immunohistochemistry and immunofluorescence, respectively. For immunofluorescence, slides were washed with 1% Triton X-100 in PBS, rinsed and blocked for 30 min with 2% bovine serum albumin (BSA—Sigma-Aldrich). Primary antibodies and fluorophore-conjugated secondary antibodies were diluted in 2% BSA and incubated over night at 4° C. The following primary antibodies were used; Chrm1 (1:200 Santa Cruz), Ki67 (1:500 Abcam), p-EGFR (1:200 Abcam), and CD44 (1:200 BIO-RAD). For immunohistochemical staining, slides were deparaffinized in xylene and endogenous peroxidase was blocked by incubation with 3% hydrogen peroxide in methanol for visualization using the peroxidase reaction.

Another assay concerns Panc02 liver metastases. The assay is described as follows: Panc02 liver metastatic model (splenic injection, hemi-splenectomy). The class given is in vivo, mouse. The text has this:
A metastatic mouse model of pancreatic cancer has been developed. The procedure reported by Lei Zheng has been modified and involves resecting half the spleen followed by injection 2×10^6 Panc02 (or other PDAC cell lines) into the spleen (4, 5). (FIG. 3A, B). Mice are then sacrificed 30-60 days later. […] In combination with this metastatic model of pancreatic cancer, a surgical approach to achieve selective cholinergic denervation of the liver has been developed. This involves identifying and isolating the hepatic branch of the vagal nerve, followed by resection of the hepatic branch (FIG. 3E, F).
In additional preliminary studies, the effects of bethanechol on the progression of liver metastases and in survival were examined. […] There were 5-8 mice in each group.
Then, it was examined whether the direct parasympathetic signal influences the metastatic lesions. The liver is a major site of metastatic spread for pancreatic cancer as well as many other solid tumors, and many patients with advanced PDAC eventually die with liver metastases. In order to investigate the role of parasympathetic signaling on the growth of liver metastasis, a well established syngeneic model of metastatic pancreatic cancer (Soares et al. 2014) was utilized. […] Moreover, to confirm that the parasympathetic pathway directly regulated tumor cells at the liver metastatic site, expression of Ki67, CD44 and pEGFR was analyzed.
Liver metastatic model procedure was performed previously described. (Soares K C et al. 2014) Briefly, a left subcostal incision was performed along the line with the left ear and the spleen was exposed through the incision. The spleen was divided into upper and lower spleen by placing two Horizon medium size ligating clips in the center of the spleen. 150 μl of phosphate buffered saline was drawn up into a 27 G×⅝″ syringe and 100 μl of Panc02 (2×10^6) cells was also drawn up into the same syringe and the cells were injected slowly into the exposed lower-hemispleen. Lower hemisplenectomy was performed by ligating pancreas spleen vessel and cutting above.
However, given that many PDAC patients with metastatic disease (Stage IV) eventually die with liver metastases, the effect of parasympathetic signaling on the growth of hepatic lesions was examined utilizing a well-established syngeneic model of metastatic PDAC^32. […] Moreover, to confirm that the parasympathetic pathway directly regulated tumor cells at the liver metastatic site, expression of Ki67 (FIGS. 12H-K), p-EGFR (FIGS. 12L-O) and CD44 (FIGS. 12P-S) were analyzed immunohistochemically. […]

Assay [1] has as its system Organoid cultures derived from LSL-K-Ras^G12D pancreata not treated by an Adeno-Cre virus. The class given is cell-based. To be noted: no Adeno-Cre virus (Kras not activated).
For another assay, the system named is CHRM1. The assay is described as follows: qRT-PCR of muscarinic receptor expression, human PDAC cell lines. The class given is cell-based. Conditions: human PDAC cell lines (MiaPaca2 and Panc1), compared to control.
For a further assay, the system named is murine K8282 cells. The assay is described as follows: Western blot of EGFR/MAPK and PI3K/AKT signaling, K8282. The class given is cell-based, mouse.
Where [2] appears, read: vagotomized KC mice, bethanechol treatment.
Where [3] appears, read: Panc02 liver metastatic model, at necropsy.
Setting [4] is: Panc02 liver metastatic model, bethanechol vs untreated control.

Method for murine K8282 cells: To analyze EGFR and the MAPK and PI3K-Akt pathway in human and murine pancreatic cancer cell lines, cells were grown in 12-well plate to around ˜70% confluent, changed the 0.5% FBS medium, added the drugs respectively and incubated them for further 72 hrs incubation in a typical CO2 incubator (˜20% O2). After removing the medium, cells were washed twice with PBS, and protein extraction was performed on ice using RIPA buffer with protease inhibitor (Complete) (Roche) cocktail and phosphatase inhibitor (phosSTOP) (Roche). Protein samples were subsequently separated in 10% Bis-Tris Gel NuPAGE® electrophoresis using MES SDS Running Buffer (Invitrogen, CA, USA). After transfer to nitrocellulose, membranes were blocked with 5% BSA, and samples were probed with the following primary antibodies: p-EGFR (Cell Signaling), EGFR (Cell Signaling), p-BRAF (Cell Signaling), BRAF (Cell Signaling), p-ERK1/2 (phosphorylated p44/42 MAPK) (Thr202/Tyr204) (Cell Signaling), ERK1/2 (p44/42 MAPK) (Thr202/Tyr204) (Cell Signaling), p-PI3K (Cell Signaling), PI3K (Cell Signaling), p-Akt (Cell Signaling), Akt (Cell Signaling), and β-actin (Cell Signaling) followed by horseradish peroxidase-coupled secondary antibody. Immunoreactive bands were visualized using 5-bromo-4-chloro-3-indolyl phosphate/nitro blue tetrazolium and bands were quantified with ImageJ.
To analyze EGFR, MAPK and PI3K-AKT pathways in human and murine pancreatic cancer cell lines, cells were grown in 12-well culture plates to ˜70% confluency. The medium was then changed to 0.5% FBS medium, the respective drugs were added, and they were incubated for an additional 72 hours in a CO2 incubator (˜5% CO2). After removing the medium, cells were washed twice with PBS, and protein extraction was performed on ice using RIPA buffer with protease inhibitor (Complete, Roche) cocktail and a phosphatase inhibitor (phosSTOP, Roche). Protein samples were subsequently separated by 10% Bis-Tris Gel NuPAGE® electrophoresis using MES SDS Running Buffer (Invitrogen, CA, USA). After transfer to nitrocellulose, membranes were blocked with 5% BSA, and samples were probed with the following primary antibodies: p-EGFR (Cell Signaling), EGFR (Cell Signaling), p-BRAF (Cell Signaling), BRAF (Cell Signaling), p-ERK1/2 (phosphorylated p44/42 MAPK) (Thr202/Tyr204) (Cell Signaling), ERK1/2 (p44/42 MAPK) (Thr202/Tyr204) (Cell Signaling), p-PI3K (Cell Signaling), PI3K (Cell Signaling), p-AKT (Cell Signaling), AKT (Cell Signaling), and β-actin (Cell Signaling) followed by horseradish peroxidase-coupled secondary antibody. Immunoreactive bands were visualized using 5-bromo-4-chloro-3-indolyl phosphate/nitro blue tetrazolium and bands were quantified with ImageJ.

In the case of `CC(C[N+](C)(C)C)OC(N)=O` (stereo not shown) [bethanechol, 2-[(aminocarbonyl)oxy]-N,N,N-trimethyl-1-propanaminium], the M1R expression entry with KC mice (KC mice following vagotomy, bethanechol in drinking water) is “reduced”. For the same compound, the PanIN area entry in the assay on KC mice (KC+VxPP mice, bethanechol 400 μg/ml in drinking water from 8 to 20 weeks, vs untreated KC+VxPP) was “significant reduction; also recorded: reduced”. Also, in the assay with KC mice (KC+VxPP mice, vs untreated KC+VxPP), the “pancreatic tumor (PDAC) incidence” value is reported as “reduced; also recorded: inhibits”. The “pancreatic tumor (PDAC) incidence” value in the assay on KC mice (KC+VxPP mice, vs untreated KC+VxPP, listed as Bethanechol) is “significant reduction; also recorded: significant decrease”. In addition, the “pancreatic CD44 expression” value in the assay on KC mice (KC+VxPP mice) is reported as “significant decrease; also recorded: reduced”. Further, the “pancreatic CD44 expression” value with KC mice (KC+VxPP mice, listed as Bethanechol) is listed as “reduced”. In addition, the area of inflammation result in the assay on KC mice (vagotomized KC mice, bethanechol 400 μg/ml, vs KC+VxPP control group) is “significant reduction”. For the same compound, in the assay on KC mice (setting [2]), the “accelerated tumorigenesis / PanIN progression after vagotomy (KC phenotype)” value is “ameliorated; also recorded: suppresses; also recorded: restored the normal KC phenotype; also recorded: reduces”; the “expression of p-EGFR, p-PI3K and p-ERK1/2 (immunohistochemical staining)” value is “significantly suppressed”; the “systemic and splenic levels of TNFα, CD11b+ and F4/80+ pancreatic myeloid cells” value was “suppressed”; the “tumor-associated macrophages (TAM) increased by vagal denervation” value is reported as “abolished”. Also, the “accelerated tumorigenesis / PanIN progression after vagotomy (KC phenotype)” value in the assay with KC mice (vagotomized KC mice, bethanechol treatment, listed as Bethanechol) is reported as “abrogate; also recorded: suppressed”. In the assay on Panc02 liver metastases (setting [3]), the “(maximum) tumor volume” value was “inhibited” and the number of tumors result was “inhibited”. Further, the survival in the assay on Panc02 liver metastases (Panc02 liver metastatic model, bethanechol in drinking water, controls 29 days) was determined as 41 days. In addition, in the assay on Panc02 liver metastases (setting [4]), the “survival (in words)” value was “significantly longer; also recorded: extend; also recorded: significantly prolonged” and the tumor growth entry is on record as “inhibited; also recorded: suppressed”. In addition, the “immunohistochemical markers: Ki67, C44, F4/80, nerves (peripherin or neurofilament), phospho-EGFR and phosphor-PI3K” value in the assay on Panc02 liver metastases (after bethanechol treatment) is given as “decreased”. For the same compound, in the assay on Panc02 liver metastases (bethanechol group vs untreated control), the “expression of Ki67, p-EGFR and CD44 in liver metastases” value is “significantly decreased; also recorded: suppression”. The “reduction in Ki-67 staining of Panc02 liver mets” value with Panc02 liver metastases (mice, bethanechol treatment) is 50%. Also, the “sphere forming capacity / growth of WT spheres” value in assay [1] is “increased”.
As for `CC[C@@H]1C(=O)OC[C@@H]1Cc1cncn1C` [pilocarpine, (3S,4R)-3-ethyl-4-[(3-methylimidazol-4-yl)methyl]oxolan-2-one], the “sphere forming capacity / growth of WT spheres” value in assay [1] is listed as “stimulates”. The Chrm1 expression entry in the assay with CHRM1 was “decreased; also recorded: lower”. The “phosphorylation of EGFR, BRAF, ERK1/2, PI3K and AKT kinases (western blot)” value in the assay with murine K8282 cells (72 hours) was “significantly less phosphorylated”. Besides, in the assay with murine K8282 cells (single agent alone), the “ratios of p-EGFR/EGFR, p-BRAF/BRAF, p-ERK/ERK, p-PI3K/PI3K and p-AKT/AKT (densitometry)” value is “significantly decreased”.
